Experiments:
[1] = molecular target: T1, GST-human KRas166 (G12V) GPPNHP (Homo sapiens, UniProt P01116, G12V); assay: KRas small-molecule screening by SPR (BIACORE T200); assay type: binding; settings: compound at final concentration of 100 uM; immobilised GST-KRAS166 (G12V) GPPNHP, GST reference channel
T1 construct: made in house; host or cells: E. coli C41(DE3)
Description: For SPR assays pGEX-KRAS(G12V) plasmid was transformed into E. coli C41(DE3). Bacterial cells were cultured at 37° C. to an OD600 of 0.6 and induced with IPTG (final 0.1 mM) at 18° C. overnight. The GST fusion proteins were extracted from bacteria pellets after cell disruption in 140 mM NaCl, 2.7 mM KCl, […], 1.8 mM KH2PO4, 1 mM EDTA, 2 mM MgCl2 pH 7.4 and purified by glutathione-sepharose column chromatography (GE Healthcare), eluting with 50 mM Tris-HCl pH8.0, 10 mM reduced glutathione, 1 mM DTT, 2 mM MgC2. The eluted proteins were dialysed against 50 mM Tris-HCl pH8.0, 1 mM DTT, 2 mM MgCl2 and concentrated to 10 mg/ml using a Biomax-30 […]-15 centrifugal filter device (Millipore). Purified KRAS protein was loaded with GPPNHP as described elsewhere (Pacold et al., 2000). Loaded protein was then purified by gel filtration on a HiLoad Superdex-75 HR column (GE Healthcare) in 1×PBS pH7.4, 5 mM MgCl2 and concentrated for storage.
To a previously immobilized CM5 chip (GE Healthcare BR-1005-30) with anti GST antibody via amine coupling method, GST in channel 1 and GST-human KRas166 (G12V) GPPNHP in channel 2 were immobilised. GST was immobilised between 2,000 and 5,000 Response units. KRAS166 (G12V) was immobilized between 10,000 to 15,000 Response Units.
In a 96 well plate, compounds were diluted in […], 5 mM MgCl2 and 5% DMSO Buffer to a final concentration of 100 uM. DCAI was used as positive control. Experiment also included a solvent correction curve for 5% DMSO. Screening and evaluation of the protein immobilization and the compounds screening was done accordingly to the BIACORE T200 control and evaluation software.
Protein immobilisation: 10,000 RU; average fragment 300 Da in size. Rmax=(MWA/MWL)×RL×SM MWA is the molecular weight of the analyte in Da MWL is the molecular weight of the ligand in Da RL is the immobilization level in RU SM is the molar stoichiometry (assume 1:1) Rmax=300/47,500×10,000×1 Rmax=63 RU. Cell Viability Assay protocols

[2] = system: H358 cells (ATCC CRL-5807); assay: Cell viability assay (CellTiter-Glo), H358 cells; assay type: cell-based; settings: Homo sapiens, NCI-H358, 48 h incubation, first value of the cell, read-out: Cell Viability (μM) H358 (concentration that decreases cell viability by 50%)
Description: (§1) Cells (A549 ATCC CCL-185) are cultured in Dulbecco's Modified Eagle's Medium plus 10% foetal calf serum and 2 mM L-glutamine at 37° C., 5% CO2. Cells are plated onto white clear bottom 96-well plates (5000 cells/well in 200 μl media) and left to adhere overnight at 37° C., 5% CO2. Next day, test compound (1 μl at 200× concentration in 100% DMSO) is added to give final test compound concentration 1× in 0.5% DMSO. After 48 h of incubation at 37° C., 5% CO2, 20 μl CellTiter-Glo reagent (Promega G7572) is added into each well. Plates are incubated at room temperature with shaking for 30 min and then luminescence is read using a PheraStar plate reader. The concentration of compounds that decrease cell viability by 50% is calculated from dose response curves generated using Dotmatics data analysis software.
In the H358 cell assay, cells (ATCC CRL-5807) are cultured in RPM-1640 medium plus 10% foetal calf serum and 2 mM L-glutamine at 37° C., 5% CO2.

[3] = system: DLD1 cells (ATCC CCL-221); assay: Cell viability assay (CellTiter-Glo), DLD1 cells; assay type: cell-based; settings: Homo sapiens, DLD-1 cells, 48 h incubation, second value of the cell, read-out: Cell Viability (μM) DLD-1 (concentration that decreases cell viability by 50%)
Description: as §1
In the DLD1 cell assay, cells (ATCC CCL-221) are cultured in RPMI-1640 medium plus 10% foetal calf serum and 2 mM L-glutamine at 37° C., 5% CO2.

Compound | SPR Response Units [1] [Response Units] | IC50 [2] [µM] | IC50 [3] [µM]
NCc1ccc(CN(C[C@@H]2COc3ccc(OCc4ccccc4)cc3O2)C(=O)c2ncco2)cc1 [Example 44, Oxazole-2-carboxylic acid (4-aminomethyl-benzyl)-((R)-7-benzyloxy-2,3-dihydro-benzo[1,4]dioxin-2-ylmethyl)-amide] | 221 | > 100 | 9
O=C1CCCN1CC(NC[C@@H]1COc2ccc(OCc3ccccc3)cc2O1)c1ccccc1 (stereo partly drawn) [Example 47, 1-{2-[((R)-7-Benzyloxy-2,3-dihydro-benzo[1,4]dioxin-2-ylmethyl)-amino]-2-phenyl-ethyl}-pyrrolidin-2-one] | 48 | 35 | 15.7
CN(C)CC(=O)N[C@H]1CC[C@@H](N(Cc2ccn[nH]2)C[C@@H]2COc3ccc(OCc4ccccc4)cc3O2)CC1 [Example 51, N-{4-[((R)-7-Benzyloxy-2,3-dihydro-benzo[1,4]dioxin-2-ylmethyl)-(2H-pyrazol-3-ylmethyl)-amino]-cyclohexyl}-2-dimethylamino-acetamide] | 166 | 14 | 7.3
CN1CCN(Cc2ccc(C(=O)NC[C@@H]3COc4ccc(OCc5ccc(Cl)cc5)cc4O3)o2)CC1 [Example 24, 5-(4-Methyl-piperazin-1-ylmethyl)-furan-2-carboxylic acid [(R)-7-(4-chloro-benzyloxy)-2,3-dihydro-benzo[1,4]dioxin-2-ylmethyl]-amide] | 226 | 49 | 2.5
CN1CCC(CNC[C@@H]2COc3ccc(OCc4ccccc4)cc3O2)CC1 [Example 46, ((R)-7-Benzyloxy-2,3-dihydro-benzo[1,4]dioxin-2-ylmethyl)-(1-methyl-piperidin-4-ylmethyl)-amine] | 75 | 16 | 2
CN1CCC(C(=O)NC[C@@H]2COc3ccc(OCc4ccc(F)cc4)cc3O2)CC1 [Example 31, 1-Methyl-piperidine-4-carboxylic acid [(R)-7-(4-fluoro-benzyloxy)-2,3-dihydro-benzo[1,4]dioxin-2-ylmethyl]-amide] | 28 | 18.2 | 9.6
CN1CCN(Cc2ccc(C(=O)NC[C@@H]3COc4ccc(OCc5ccccc5)cc4O3)o2)CC1 [Example 2, 5-(4-Methyl-piperazin-1-ylmethyl)-furan-2-carboxylic acid ((R)-7-benzyloxy-2,3-dihydro-benzo[1,4]dioxin-2-ylmethyl)-amide] | 224 | 43 | 10
CN1CCN(Cc2ccc(C(=O)NC[C@@H]3COc4ccc(OCCc5ccccc5)cc4O3)o2)CC1 [Example 23, 5-(4-Methyl-piperazin-1-ylmethyl)-furan-2-carboxylic acid ((R)-7-phenethyloxy-2,3-dihydro-benzo[1,4]dioxin-2-ylmethyl)-amide] | 86 | 35 | 3.5
O=C(Nc1ncc[nH]1)C1COc2ccc(OCc3ccccc3)cc2O1.O=CO (stereo not drawn) [Example 61, 7-Benzyloxy-2,3-dihydro-benzo[1,4]dioxine-2-carboxylic acid (1H-imidazol-2-yl)-amide; formic acid salt] | 25 | > 100 | 13
COc1ccc(COc2ccc3c(c2)O[C@H](CNC(=O)c2ccc(CN4CCN(C)CC4)o2)CO3)cc1 [Example 22, 5-(4-Methyl-piperazin-1-ylmethyl)-furan-2-carboxylic acid [(R)-7-(4-methoxy-benzyloxy)-2,3-dihydro-benzo[1,4]dioxin-2-ylmethyl]-amide] | 96 | 46 | 12
CN1CCN(Cc2cccc(CNC(=O)C3COc4ccc(OCc5ccccc5)cc4O3)c2)CC1 (stereo not drawn) [Example 62, 7-Benzyloxy-2,3-dihydro-benzo[1,4]dioxine-2-carboxylic acid 3-(4-methyl-piperazin-1-ylmethyl)-benzylamide] | 93 | 42 | 7
Cc1cccc(COc2ccc3c(c2)O[C@H](CNC(=O)C2CCN(C)CC2)CO3)c1 [Example 28, 1-Methyl-piperidine-4-carboxylic acid [(R)-7-(3-methyl-benzyloxy)-2,3-dihydro-benzo[1,4]dioxin-2-ylmethyl]-amide] | 39 | 16.6 | 8.2
CN1CCC(C(=O)NC[C@@H]2COc3ccc(OCc4ccccc4)cc3O2)CC1 [Example 1, 1-methyl-piperidine-4-carboxylic acid ((R)-7-benzyloxy-2,3-dihydro-benzo[1,4]dioxin-2-ylmethyl)-amide] | 48 | 61 | 13
CC(C)(C)OC(=O)NCc1ccc(CN(C[C@@H]2COc3ccc(OCc4ccccc4)cc3O2)C(=O)c2ncco2)cc1 [Example 41, (4-{[((R)-7-Benzyloxy-2,3-dihydro-benzo[1,4]dioxin-2-ylmethyl)-(oxazole-2-carbonyl)-amino]-methyl}-benzyl)-carbamic acid tert-butyl ester] | 7 | 74 | 16
NCC(=O)N[C@H]1CC[C@@H](NC(=O)C2COc3ccc(OCc4ccccc4)cc3O2)CC1 (stereo partly drawn) [Example 85, 7-Benzyloxy-2,3-dihydro-benzo[1,4]dioxine-2-carboxylic acid [4-(2-amino-acetylamino)-cyclohexyl]-amide] | 64 | > 100 | 10
c1ccc(COc2ccc3c(c2)O[C@H](CNC2CCNCC2)CO3)cc1 [Example 45, ((R)-7-Benzyloxy-2,3-dihydro-benzo[1,4]dioxin-2-ylmethyl)-piperidin-4-yl-amine] | 22 | 26.3 | 9.6
CN(C)CCCOc1ccc(CN(C[C@@H]2COc3ccc(OCc4ccccc4)cc3O2)C(=O)c2ncco2)cc1 [Example 40, Oxazole-2-carboxylic acid ((R)-7-benzyloxy-2,3-dihydro-benzo[1,4]dioxin-2-ylmethyl)-[4-(3-dimethylamino-propoxy)-benzyl]-amide] | 173 | 14 | 2
CN1CCN(Cc2cnc(C(=O)NC[C@@H]3COc4ccc(OCc5ccccc5)cc4O3)o2)CC1 [Example 4, 5-(4-Methyl-piperazin-1-ylmethyl)-oxazole-2-carboxylic acid ((R)-7-benzyloxy-2,3-dihydro-benzo[1,4]dioxin-2-ylmethyl)-amide] | 66 | 57 | 12
